The values that follow come from US9216999B2, “Substituted pyrrolo[2,3-h][1,6]naphthyridines and compositions thereof as JAK inhibitors” (priority 2011, dated 2015).

Holding throughout (format): biochemical
Common to all, as to conditions: ATP 100 μM

The target of one assay is JAK3 (Homo sapiens (Human), UniProt P52333). Briefly: Enzyme assay (Assay Example^a 1), JAK3.
The target of the next assay is JAK2 (Homo sapiens (Human), UniProt O60674). The assay is described as follows: Enzyme assay (Assay Example^a 1), JAK2.
The next assay has as its target Tyk2 (Homo sapiens (Human), UniProt P29597). Briefly: Enzyme assay (Assay Example^a 1), Tyk2.
A further assay addresses JAK1 (Homo sapiens (Human), UniProt P23458). Briefly: Enzyme assay (Assay Example^a 1), JAK1.

Chain of JAK3 (P52333 whole entry): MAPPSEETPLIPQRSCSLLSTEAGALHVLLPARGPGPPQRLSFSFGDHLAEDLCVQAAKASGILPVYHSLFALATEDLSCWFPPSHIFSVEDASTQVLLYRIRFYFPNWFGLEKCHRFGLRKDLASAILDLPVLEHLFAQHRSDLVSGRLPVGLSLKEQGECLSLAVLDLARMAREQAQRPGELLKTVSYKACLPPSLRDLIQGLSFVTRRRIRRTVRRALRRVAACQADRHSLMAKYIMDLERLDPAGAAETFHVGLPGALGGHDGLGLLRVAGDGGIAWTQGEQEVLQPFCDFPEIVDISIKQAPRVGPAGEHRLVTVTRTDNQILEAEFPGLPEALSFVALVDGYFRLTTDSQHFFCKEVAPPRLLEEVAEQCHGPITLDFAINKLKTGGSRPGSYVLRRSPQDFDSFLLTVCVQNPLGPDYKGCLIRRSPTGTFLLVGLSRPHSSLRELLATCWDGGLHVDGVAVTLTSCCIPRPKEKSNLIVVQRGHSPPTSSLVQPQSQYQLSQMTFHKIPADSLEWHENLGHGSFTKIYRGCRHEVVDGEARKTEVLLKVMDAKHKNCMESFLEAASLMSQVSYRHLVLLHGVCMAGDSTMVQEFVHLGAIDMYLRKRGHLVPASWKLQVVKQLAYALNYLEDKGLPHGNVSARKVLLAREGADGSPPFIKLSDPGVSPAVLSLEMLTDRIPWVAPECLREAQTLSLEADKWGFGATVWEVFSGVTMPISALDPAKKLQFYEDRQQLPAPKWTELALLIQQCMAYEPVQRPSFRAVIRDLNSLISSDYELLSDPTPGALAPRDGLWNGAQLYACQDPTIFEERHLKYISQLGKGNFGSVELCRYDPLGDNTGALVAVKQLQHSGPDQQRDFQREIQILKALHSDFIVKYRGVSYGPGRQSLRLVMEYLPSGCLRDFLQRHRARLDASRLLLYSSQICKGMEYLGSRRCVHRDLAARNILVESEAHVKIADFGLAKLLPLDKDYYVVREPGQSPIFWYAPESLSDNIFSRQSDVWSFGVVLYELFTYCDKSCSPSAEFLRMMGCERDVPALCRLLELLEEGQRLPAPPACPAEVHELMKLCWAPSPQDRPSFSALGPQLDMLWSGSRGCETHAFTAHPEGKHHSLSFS
Chain of Tyk2 (P29597 whole entry): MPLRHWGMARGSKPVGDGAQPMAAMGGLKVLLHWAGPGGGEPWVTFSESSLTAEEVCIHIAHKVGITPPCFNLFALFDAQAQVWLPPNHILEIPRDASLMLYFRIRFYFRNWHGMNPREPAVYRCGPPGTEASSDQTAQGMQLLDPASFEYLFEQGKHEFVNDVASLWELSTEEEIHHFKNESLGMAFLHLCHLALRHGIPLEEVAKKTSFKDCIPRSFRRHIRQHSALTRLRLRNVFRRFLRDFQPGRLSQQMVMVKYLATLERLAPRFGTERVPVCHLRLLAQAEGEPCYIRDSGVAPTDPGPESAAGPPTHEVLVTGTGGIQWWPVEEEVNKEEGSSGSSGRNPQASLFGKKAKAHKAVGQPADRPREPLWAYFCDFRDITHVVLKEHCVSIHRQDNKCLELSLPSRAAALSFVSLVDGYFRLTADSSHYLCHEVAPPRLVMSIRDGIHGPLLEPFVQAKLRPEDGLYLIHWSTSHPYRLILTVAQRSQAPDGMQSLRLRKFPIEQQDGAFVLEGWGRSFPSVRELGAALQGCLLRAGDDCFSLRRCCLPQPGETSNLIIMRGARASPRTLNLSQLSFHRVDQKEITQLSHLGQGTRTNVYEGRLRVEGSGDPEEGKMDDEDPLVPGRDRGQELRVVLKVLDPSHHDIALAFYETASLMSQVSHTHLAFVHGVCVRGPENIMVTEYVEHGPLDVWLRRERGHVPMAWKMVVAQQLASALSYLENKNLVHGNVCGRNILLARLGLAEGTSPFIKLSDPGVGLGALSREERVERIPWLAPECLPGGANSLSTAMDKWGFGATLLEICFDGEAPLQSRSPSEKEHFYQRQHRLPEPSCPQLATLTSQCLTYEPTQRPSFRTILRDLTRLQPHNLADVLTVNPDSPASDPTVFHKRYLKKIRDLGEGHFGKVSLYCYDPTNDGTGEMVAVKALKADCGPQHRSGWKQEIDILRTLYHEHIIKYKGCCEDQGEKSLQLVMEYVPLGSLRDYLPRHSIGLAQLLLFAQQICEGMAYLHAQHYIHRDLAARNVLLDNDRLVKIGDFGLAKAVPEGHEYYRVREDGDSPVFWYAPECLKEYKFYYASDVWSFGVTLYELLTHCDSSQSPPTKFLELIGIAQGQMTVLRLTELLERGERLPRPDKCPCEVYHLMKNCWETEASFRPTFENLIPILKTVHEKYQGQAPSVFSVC

`COCCN(CCOC)C[C@H]1CC[C@H](c2nnn3cnc4[nH]ccc4c23)CC1` [compound 326, N-{[trans-4-(7H-pyrrolo[3,2-e][1,2,3]triazolo[1,5-c]pyrimidin-1-yl)cyclohexyl]methyl}-2-methoxy-N-(2-methoxyethyl)ethanamine]: the IC50 was over 1 µM against JAK3, 0.31 µM on JAK2, over 1 µM on Tyk2 and 0.048 µM at JAK1.

Consider `OCC1(NC[C@H]2CC[C@H](c3nnn4cnc5[nH]ccc5c34)CC2)CC1` [compound 327, [1-({[trans-4-(7H-pyrrolo[3,2-e][1,2,3]triazolo[1,5-c]pyrimidin-1-yl)cyclohexyl]methyl}amino)cyclopropyl]methanol], for which the IC50 against JAK3 is 0.79 µM; against JAK2 it was 0.054 µM; on Tyk2, 0.55 µM; against JAK1, 0.007 µM.

Take `CNC[C@H]1CC[C@H](c2nnn3cnc4[nH]ccc4c23)CC1` [compound 329, 1-[trans-4-(7H-pyrrolo[3,2-e][1,2,3]triazolo[1,5-c]pyrimidin-1-yl)cyclohexyl]-N-methylmethanamine]: the IC50 against JAK3 is 0.8 µM; at JAK2, 0.029 µM; at Tyk2, 0.21 µM; against JAK1, 0.0048 µM.

In the case of `CCNC[C@H]1CC[C@H](c2nnn3cnc4[nH]ccc4c23)CC1` [compound 330, N-{[trans-4-(7H-pyrrolo[3,2-e][1,2,3]triazolo[1,5-c]pyrimidin-1-yl)cyclohexyl]methyl}ethanamine], the concentration for half-maximal inhibition (IC50) was over 1 µM at JAK3, 0.047 µM at JAK2, 0.14 µM against Tyk2 and 0.0074 µM against JAK1.

In the case of `CC(C)NC[C@H]1CC[C@H](c2nnn3cnc4[nH]ccc4c23)CC1` [compound 331, N-{[trans-4-(7H-pyrrolo[3,2-e][1,2,3]triazolo[1,5-c]pyrimidin-1-yl)cyclohexyl]methyl}propan-2-amine], the IC50 against JAK3 was over 1 µM; on JAK2, 0.054 µM; on Tyk2, 0.42 µM; on JAK1 it was 0.0088 µM.

For the compound `CC(C)(C)NC[C@H]1CC[C@H](c2nnn3cnc4[nH]ccc4c23)CC1` [compound 332, N-{[trans-4-(7H-pyrrolo[3,2-e][1,2,3]triazolo[1,5-c]pyrimidin-1-yl)cyclohexyl]methyl}-2-methylpropan-2-amine], the IC50 is over 1 µM on JAK3, 0.045 µM on JAK2, 0.49 µM on Tyk2 and 0.012 µM at JAK1.

Regarding `C#CCNC[C@H]1CC[C@H](c2nnn3cnc4[nH]ccc4c23)CC1` [compound 333, N-{[trans-4-(7H-pyrrolo[3,2-e][1,2,3]triazolo[1,5-c]pyrimidin-1-yl)cyclohexyl]methyl}prop-2-yn-1-amine], the IC50 against JAK3 was over 1 µM; against JAK2, 0.044 µM; against Tyk2, 0.27 µM; against JAK1 it was 0.0085 µM.

`c1cc2c(ncn3nnc([C@H]4CC[C@H](CN5CCC(N6CCOCC6)CC5)CC4)c23)[nH]1` [compound 334, 4-(1-{[trans-4-(7H-pyrrolo[3,2-e][1,2,3]triazolo[1,5-c]pyrimidin-1-yl)cyclohexyl]methyl}piperidin-4-yl)morpholine]: the IC50 is over 1 µM against JAK3, over 1 µM on JAK2, over 1 µM on Tyk2 and 0.064 µM on JAK1.

With `CC(C)(C)OC(=O)N1CCC(CNC[C@H]2CC[C@H](c3nnn4cnc5[nH]ccc5c34)CC2)CC1` [compound 335, tert-butyl 4-[({[trans-4-(7H-pyrrolo[3,2-e][1,2,3]triazolo[1,5-c]pyrimidin-1-yl)cyclohexyl]methyl}amino)methyl]piperidine-1-carboxylate], the IC50 was over 1 µM on JAK3, 0.29 µM at JAK2, 0.71 µM at Tyk2 and 0.029 µM against JAK1.

Regarding `CC(C)(C)OC(=O)NCC1CCN(C[C@H]2CC[C@H](c3nnn4cnc5[nH]ccc5c34)CC2)CC1` [compound 336, tert-butyl [(1-{[trans-4-(7H-pyrrolo[3,2-e][1,2,3]triazolo[1,5-c]pyrimidin-1-yl)cyclohexyl]methyl}piperidin-4-yl)methyl]carbamate], the IC50 is over 1 µM at JAK3, 0.37 µM against JAK2, over 1 µM against Tyk2 and 0.025 µM at JAK1.

With `CC(C)(C)OC(=O)N1CC[C@H](NC[C@H]2CC[C@H](c3nnn4cnc5[nH]ccc5c34)CC2)C1` [compound 337, (S)-tert-butyl 3-({[trans-4-(7H-pyrrolo[3,2-e][1,2,3]triazolo[1,5-c]pyrimidin-1-yl)cyclohexyl]methyl}amino)pyrrolidine-1-carboxylate], the IC50 at JAK3 was over 1 µM; against JAK2 it was 0.34 µM; at Tyk2, 0.51 µM; at JAK1, 0.029 µM.

Take `FC1CN(C[C@H]2CC[C@H](c3nnn4cnc5[nH]ccc5c34)CC2)C1` [compound 338, 1-{trans-4-[(3-fluoroazetidin-1-yl)methyl]cyclohexyl}-7H-pyrrolo[3,2-e][1,2,3]triazolo[1,5-c]pyrimidine]: the IC50 on JAK3 is 0.48 µM; against JAK2, 0.06 µM; on Tyk2 it was 0.59 µM; at JAK1, 0.0069 µM.

Take `FC1(F)CN(C[C@H]2CC[C@H](c3nnn4cnc5[nH]ccc5c34)CC2)C1` [compound 339, 1-{trans-4-[(3,3-difluoroazetidin-1-yl)methyl]cyclohexyl}-7H-pyrrolo[3,2-e][1,2,3]triazolo[1,5-c]pyrimidine]: the IC50 is 0.26 µM against JAK3, 0.052 µM against JAK2, 0.86 µM against Tyk2 and 0.018 µM at JAK1.

For `CN(C)[C@@H]1CCN(C[C@H]2CC[C@H](c3nnn4cnc5[nH]ccc5c34)CC2)C1` [compound 340, (R)-1-{[trans-4-(7H-pyrrolo[3,2-e][1,2,3]triazolo[1,5-c]pyrimidin-1-yl)cyclohexyl]methyl}-N,N-dimethylpyrrolidin-3-amine], the IC50 on JAK3 was over 1 µM; on JAK2, 0.23 µM; against Tyk2, over 1 µM; against JAK1, 0.021 µM.

As to `O=C(CNC[C@H]1CC[C@H](c2nnn3cnc4[nH]ccc4c23)CC1)NCC(F)(F)F` [compound 341, 2-({[trans-4-(7H-pyrrolo[3,2-e][1,2,3]triazolo[1,5-c]pyrimidin-1-yl)cyclohexyl]methyl}amino)-N-(2,2,2-trifluoroethyl)acetamide], the 50% inhibitory concentration (IC50) against JAK3 came to 0.31 µM; on JAK2 it was 0.059 µM; at Tyk2 it was 0.32 µM; against JAK1, 0.01 µM.

`FC(F)(F)C(F)(F)CNC[C@H]1CC[C@H](c2nnn3cnc4[nH]ccc4c23)CC1` [compound 342, N-{[trans-4-(7H-pyrrolo[3,2-e][1,2,3]triazolo[1,5-c]pyrimidin-1-yl)cyclohexyl]methyl}-2,2,3,3,3-pentafluoropropan-1-amine]: the half-inhibitory concentration (IC50) worked out at 0.13 µM against JAK3, 0.034 µM at JAK2, 0.35 µM against Tyk2 and 0.0039 µM against JAK1.

On to `OC(CNC[C@H]1CC[C@H](c2nnn3cnc4[nH]ccc4c23)CC1)C(F)(F)F` (stereo partly drawn) [compound 343, 3-({[trans-4-(7H-pyrrolo[3,2-e][1,2,3]triazolo[1,5-c]pyrimidin-1-yl)cyclohexyl]methyl}amino)-1,1,1-trifluoropropan-2-ol], for which the IC50 is 0.33 µM against JAK3, 0.063 µM against JAK2, 0.44 µM on Tyk2 and 0.01 µM at JAK1.

Consider `c1cc2c(ncn3nnc([C@H]4CC[C@H](CNC5CSC5)CC4)c23)[nH]1` [compound 344, N-{[trans-4-(7H-pyrrolo[3,2-e][1,2,3]triazolo[1,5-c]pyrimidin-1-yl)cyclohexyl]methyl}thietan-3-amine], for which the IC50 on JAK3 was 0.52 µM; on JAK2 it was 0.068 µM; at Tyk2 it was 0.39 µM; against JAK1 it was 0.012 µM.

For `CCS(=O)(=O)N1CCN(C[C@H]2CC[C@H](c3nnn4cnc5[nH]ccc5c34)CC2)CC1` [compound 345, 1-(trans-4-{[4-(ethylsulfonyl)piperazin-1-yl]methyl}cyclohexyl)-7H-pyrrolo[3,2-e][1,2,3]triazolo[1,5-c]pyrimidine], the IC50 is over 1 µM on JAK3, 0.2 µM at JAK2, over 1 µM against Tyk2 and 0.025 µM at JAK1.

Regarding `O=C(NCC(O)(c1ccccc1)C(F)(F)F)[C@H]1CC[C@H](c2nnn3cnc4[nH]ccc4c23)CC1` (stereo partly drawn) [compound 346, trans-4-(7H-Pyrrolo[3,2-e][1,2,3]triazolo[1,5-c]pyrimidin-1-yl)-N-(3,3,3-trifluoro-2-hydroxy-2-phenylpropyl)cyclohexanecarboxamide], the 50% inhibitory concentration (IC50) at JAK3 is over 1 µM; against JAK2, 0.06 µM; at Tyk2 it was over 1 µM; on JAK1 it was 0.0051 µM.

Regarding `NC(=O)[C@H]1CC[C@H](c2nnn3cnc4[nH]ccc4c23)CC1` [compound 348, trans-4-(7H-pyrrolo[3,2-e][1,2,3]triazolo[1,5-c]pyrimidin-1-yl)cyclohexanecarboxamide], the IC50 came to 0.75 µM on JAK3, 0.051 µM on JAK2, 0.29 µM against Tyk2 and 0.0099 µM at JAK1.

Take `Cc1ccc(CNC(=O)[C@H]2CC[C@H](c3nnn4cnc5[nH]ccc5c34)CC2)o1` [compound 349, trans-N-[(5-methylfuran-2-yl)methyl]-4-(7H-pyrrolo[3,2-e][1,2,3]triazolo[1,5-c]pyrimidin-1-yl)cyclohexanecarboxamide]: the IC50 was over 1 µM against JAK3, 0.048 µM against JAK2, 0.25 µM against Tyk2 and 0.0059 µM against JAK1.

For `N#CC(NC(=O)[C@H]1CC[C@H](c2nnn3cnc4[nH]ccc4c23)CC1)c1ccccc1` (stereo partly drawn) [compound 351, trans-N-[cyano(phenyl)methyl]-4-(7H-pyrrolo[3,2-e][1,2,3]triazolo[1,5-c]pyrimidin-1-yl)cyclohexanecarboxamide], the IC50 at JAK3 is over 1 µM; against JAK2 it was 0.089 µM; on Tyk2, over 1 µM; at JAK1 it was 0.012 µM.

The IC50 is the concentration that inhibits the measured activity by half.
